Experimental data published in ChEMBL document CHEMBL1201862, “PubChem BioAssay data set” (2004).
Activity calls are given as the source filed them.

Columns and labels:
[1] = HepG2 cell cytotoxicity, dose response, cytotoxicity control for Shn3 inhibitor project, CellTiter-Glo, cherry-picked (AID 624134); type: functional, cell-based
[2] = biological target: T1, High affinity choline transporter 1 (Homo sapiens, UniProt Q9GZV3); assay: CHT activators, dose response, cell-based, 10-point CRC, membrane potential dye (AID 602376); type: functional
T1 sequence (Q9GZV3 whole entry): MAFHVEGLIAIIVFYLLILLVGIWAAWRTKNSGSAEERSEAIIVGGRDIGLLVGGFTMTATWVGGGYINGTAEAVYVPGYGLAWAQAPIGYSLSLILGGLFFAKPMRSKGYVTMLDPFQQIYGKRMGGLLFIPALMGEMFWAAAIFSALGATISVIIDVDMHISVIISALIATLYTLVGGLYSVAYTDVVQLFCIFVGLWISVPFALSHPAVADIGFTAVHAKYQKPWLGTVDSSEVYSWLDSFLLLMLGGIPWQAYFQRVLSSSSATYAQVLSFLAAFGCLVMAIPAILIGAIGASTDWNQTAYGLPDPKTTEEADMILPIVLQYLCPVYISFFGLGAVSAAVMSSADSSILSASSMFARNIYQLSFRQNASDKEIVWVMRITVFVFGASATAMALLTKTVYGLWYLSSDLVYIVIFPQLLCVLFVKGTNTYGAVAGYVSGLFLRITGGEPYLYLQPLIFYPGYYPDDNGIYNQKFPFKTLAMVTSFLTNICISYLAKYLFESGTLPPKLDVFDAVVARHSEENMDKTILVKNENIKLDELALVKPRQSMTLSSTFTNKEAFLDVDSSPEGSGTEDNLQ

[3] = inhibitors of intracellular T. cruzi replication, confirmation, NIH3T3 host cells, beta-gal luminescence (AID 2044); type: functional, cell-based;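 also: intracellular parasites grown in NIH/3T3 mouse fibroblasts as host cells; luminescent beta-galactosidase reporter signal from transgenic T. cruzi replicating inside host cells; inhibitors lower the luminescence signal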
[4] = microbe, parasite or virus in culture; type: functional; settings: Mycobacterium tuberculosis
[5] = cytotoxicity toward NIH3T3 fibroblasts, dose response, counter-screen, cell-based, ATP luminescence, mouse fibroblasts (AID 2010); type: functional;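 also: cells exposed to compound for about 90 hours before reading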
[6] = THP-1 cell cytotoxicity, dose response, cytotoxicity control for non-replicating M. tuberculosis project (AID 489025); type: functional
cells = type: functional
[7] = A Cell Based Secondary Assay to Explore Cytotoxicity in THP-1 Cells of Compounds that Modulate Mycobacterium tuberculosis in Media Containing Glycerol versus Media without Glycerol (2).; type: functional
[8] = Vero cell cytotoxicity, cytotoxicity control for M. tuberculosis inhibitor project, purified and synthesized samples, set 3 (AID 504684); type: functional
[9] = A Cell Based Secondary Assay to Explore Cytotoxicity in HepG2 Cells of Compounds that Modulate Mycobacterium tuberculosis in Media Containing Glycerol versus Media without Glycerol (2).; type: functional
HEK293 [10] = assay: cytotoxicity in HEK293T NF-kB-Luc cells, SAR follow-up, cytotoxicity control for NF-kB activator project, cell-based, resazurin fluorescence (AID 493251); type: functional; settings: Homo sapiens
Jurkat = assay: SAR Analysis of small molecule inhibitors of both B-cell and T-cell specific antigen receptor-induced NF-kB activation in a Jurkat cell line using a luminescence assay. [Related pubchem assays (depositor defined):AID435003, AID435022, AID465, AID489029]; type: functional, cell-based; settings: Homo sapiens
HEK293 [11] = assay: SAR Analysis of small molecule inhibitors of both B-cell and T-cell specific antigen receptor-induced NF-kB activation in a HEK-293T cell line using a luminescence assay. [Related pubchem assays (depositor defined):AID435003, AID435022, AID465, AID489019, AID489029]; type: functional, cell-based; settings: Homo sapiens
CHO-K1 = assay: (§1) Counterscreen for antagonists of the orexin 1 receptor (OX1R; HCRTR1): Homogeneous time resolved fluorescence (HTRF)-based cell-based dose response assay to identify antagonists of the parental CHO-K1 cell line. [Related pubchem assays (depositor defined):AID434989, AID435008, AID463079, AID485270, AID492963, AID492964, AID492965, AID493232, AID504699, AID504701]; type: functional; settings: Cricetulus griseus
[12] = as §1, with “Fluorescence-based” for “Homogeneous time resolved fluorescence (HTRF)-based”, “cell-based high throughput” for “cell-based”, “CHO” for “CHO-K1”; type: functional
[13] = biological target: T2, Orexin/Hypocretin receptor type 1 (Homo sapiens, UniProt O43613); assay: Homogeneous Time Resolved Fluorescence (HTRF)-based cell-based high throughput dose response assay for antagonists of the orexin 1 receptor (OX1R; HCRTR1). [Related pubchem assays (depositor defined):AID434989, AID435008, AID463079, AID485270, AID492963, AID492964, AID492965, AID493232, AID504717, AID504718]; type: functional
T2 sequence (O43613 whole entry): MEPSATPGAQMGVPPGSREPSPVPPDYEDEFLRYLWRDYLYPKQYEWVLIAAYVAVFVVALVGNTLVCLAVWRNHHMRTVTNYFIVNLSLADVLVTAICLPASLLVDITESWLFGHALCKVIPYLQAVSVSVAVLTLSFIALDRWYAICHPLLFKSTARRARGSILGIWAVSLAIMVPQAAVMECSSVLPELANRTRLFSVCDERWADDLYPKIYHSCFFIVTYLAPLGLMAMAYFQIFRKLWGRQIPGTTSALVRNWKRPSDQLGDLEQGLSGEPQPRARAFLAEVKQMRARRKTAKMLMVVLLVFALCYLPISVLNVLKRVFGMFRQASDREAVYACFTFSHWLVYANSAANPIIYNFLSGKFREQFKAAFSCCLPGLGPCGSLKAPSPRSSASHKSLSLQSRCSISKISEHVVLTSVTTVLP

[14] = biological target: T2, Orexin/Hypocretin receptor type 1; assay: Fluorescence-based cell-based high throughput dose response assay for antagonists of the orexin 1 receptor (OX1R; HCRTR1). [Related pubchem assays (depositor defined):AID434989, AID435008, AID463079, AID485270, AID492963, AID492964, AID492965, AID493232, AID504717, AID504718]; type: functional
Orexin receptor type 2 [15] = biological target: T3, Orexin receptor type 2 (Homo sapiens, UniProt O43614); assay: Counterscreen assay for antagonists of the orexin 1 receptor (OX1R; HCRTR1): Fluorescence-based cell-based dose response assay for antagonists of the orexin 2 receptor (OX2R; HCRTR2), run by assay provider.; type: functional
T3 sequence (O43614 whole entry): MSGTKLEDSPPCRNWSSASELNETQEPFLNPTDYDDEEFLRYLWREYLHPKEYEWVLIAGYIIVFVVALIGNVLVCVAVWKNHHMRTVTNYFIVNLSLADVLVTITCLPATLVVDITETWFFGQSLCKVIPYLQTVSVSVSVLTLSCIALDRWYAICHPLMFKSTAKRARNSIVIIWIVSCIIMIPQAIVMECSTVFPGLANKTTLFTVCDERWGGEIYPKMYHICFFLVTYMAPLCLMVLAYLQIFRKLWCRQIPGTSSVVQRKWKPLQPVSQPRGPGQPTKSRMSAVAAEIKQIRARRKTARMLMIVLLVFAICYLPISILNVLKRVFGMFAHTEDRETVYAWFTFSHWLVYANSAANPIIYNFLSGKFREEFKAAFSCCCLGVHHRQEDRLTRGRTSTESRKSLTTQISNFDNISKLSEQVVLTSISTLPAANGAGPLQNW

Orexin receptor type 2 [16] = biological target: T3, Orexin receptor type 2; assay: Counterscreen assay for antagonists of the orexin 1 receptor (OX1R; HCRTR1): Homogeneous Time Resolved Fluorescence (HTRF)-based cell-based dose response assay for antagonists of the orexin 2 receptor (OX2R; HCRTR2), run by assay provider.; type: functional
[17] = biological target: Ribosomal protein S6 kinase alpha-3 (Homo sapiens, UniProt P51812); type: functional;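 also: measured within a kinome-wide profiling panel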
Ribosomal protein S6 kinase alpha-3, sequence (P51812 whole entry): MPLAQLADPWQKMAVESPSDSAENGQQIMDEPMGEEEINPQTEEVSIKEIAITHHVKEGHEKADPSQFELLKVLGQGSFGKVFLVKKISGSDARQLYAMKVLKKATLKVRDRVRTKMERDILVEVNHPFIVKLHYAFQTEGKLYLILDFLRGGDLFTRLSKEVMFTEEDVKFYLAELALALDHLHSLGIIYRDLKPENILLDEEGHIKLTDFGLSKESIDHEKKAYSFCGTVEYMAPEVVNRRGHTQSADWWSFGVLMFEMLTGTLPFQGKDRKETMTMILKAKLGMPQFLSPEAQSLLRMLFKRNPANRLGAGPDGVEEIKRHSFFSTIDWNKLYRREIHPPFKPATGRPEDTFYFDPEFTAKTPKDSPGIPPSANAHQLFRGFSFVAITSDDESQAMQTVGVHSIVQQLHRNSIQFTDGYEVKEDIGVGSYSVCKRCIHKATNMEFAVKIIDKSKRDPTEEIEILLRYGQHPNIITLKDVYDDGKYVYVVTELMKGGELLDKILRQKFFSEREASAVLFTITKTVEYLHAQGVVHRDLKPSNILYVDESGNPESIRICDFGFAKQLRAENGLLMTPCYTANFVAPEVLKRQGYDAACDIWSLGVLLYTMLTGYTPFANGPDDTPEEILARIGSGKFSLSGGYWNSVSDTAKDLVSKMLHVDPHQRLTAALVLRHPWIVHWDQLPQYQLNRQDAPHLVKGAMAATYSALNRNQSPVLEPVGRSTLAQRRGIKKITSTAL

[18] = biological target: 5'-AMP-activated protein kinase catalytic subunit alpha-1 (Homo sapiens, UniProt Q13131); type: functional
5'-AMP-activated protein kinase catalytic subunit alpha-1, sequence (Q13131 whole entry): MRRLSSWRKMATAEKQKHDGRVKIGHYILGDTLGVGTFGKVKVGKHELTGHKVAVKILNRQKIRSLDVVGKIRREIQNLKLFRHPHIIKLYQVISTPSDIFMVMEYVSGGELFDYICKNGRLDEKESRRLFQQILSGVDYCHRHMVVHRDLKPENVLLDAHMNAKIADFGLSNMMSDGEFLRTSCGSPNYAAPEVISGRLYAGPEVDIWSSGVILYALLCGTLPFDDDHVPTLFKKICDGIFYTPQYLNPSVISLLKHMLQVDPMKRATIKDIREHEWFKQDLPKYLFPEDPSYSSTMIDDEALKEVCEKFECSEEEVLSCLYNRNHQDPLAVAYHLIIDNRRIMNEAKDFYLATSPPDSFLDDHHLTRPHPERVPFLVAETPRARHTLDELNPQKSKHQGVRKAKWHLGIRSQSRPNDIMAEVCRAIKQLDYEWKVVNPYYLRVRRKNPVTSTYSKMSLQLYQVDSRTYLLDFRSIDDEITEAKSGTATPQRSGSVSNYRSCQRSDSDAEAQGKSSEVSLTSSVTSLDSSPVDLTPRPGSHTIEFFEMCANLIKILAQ

[19] = biological target: Casein kinase II subunit alpha (Homo sapiens, UniProt P68400); type: functional
Casein kinase II subunit alpha, sequence (P68400 whole entry): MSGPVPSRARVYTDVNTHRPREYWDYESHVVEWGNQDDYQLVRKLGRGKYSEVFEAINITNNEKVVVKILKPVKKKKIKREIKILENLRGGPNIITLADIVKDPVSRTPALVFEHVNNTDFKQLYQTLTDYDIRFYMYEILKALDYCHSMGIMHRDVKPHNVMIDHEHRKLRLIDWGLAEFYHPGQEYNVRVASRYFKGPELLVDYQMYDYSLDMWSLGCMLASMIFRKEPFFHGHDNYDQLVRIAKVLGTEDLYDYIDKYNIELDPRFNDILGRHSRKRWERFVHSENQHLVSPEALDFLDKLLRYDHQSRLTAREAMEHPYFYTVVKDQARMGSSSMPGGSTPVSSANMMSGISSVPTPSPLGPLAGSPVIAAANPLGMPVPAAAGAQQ

[20] = biological target: Calcium/calmodulin-dependent protein kinase type 1 (Homo sapiens, UniProt Q14012); type: functional
[21] = biological target: cAMP-dependent protein kinase catalytic subunit alpha (Homo sapiens, UniProt P17612); type: functional
[22] = biological target: Serine/threonine-protein kinase MRCK alpha (Homo sapiens, UniProt Q5VT25); type: functional
Serine/threonine-protein kinase MRCK alpha, sequence (Q5VT25 whole entry): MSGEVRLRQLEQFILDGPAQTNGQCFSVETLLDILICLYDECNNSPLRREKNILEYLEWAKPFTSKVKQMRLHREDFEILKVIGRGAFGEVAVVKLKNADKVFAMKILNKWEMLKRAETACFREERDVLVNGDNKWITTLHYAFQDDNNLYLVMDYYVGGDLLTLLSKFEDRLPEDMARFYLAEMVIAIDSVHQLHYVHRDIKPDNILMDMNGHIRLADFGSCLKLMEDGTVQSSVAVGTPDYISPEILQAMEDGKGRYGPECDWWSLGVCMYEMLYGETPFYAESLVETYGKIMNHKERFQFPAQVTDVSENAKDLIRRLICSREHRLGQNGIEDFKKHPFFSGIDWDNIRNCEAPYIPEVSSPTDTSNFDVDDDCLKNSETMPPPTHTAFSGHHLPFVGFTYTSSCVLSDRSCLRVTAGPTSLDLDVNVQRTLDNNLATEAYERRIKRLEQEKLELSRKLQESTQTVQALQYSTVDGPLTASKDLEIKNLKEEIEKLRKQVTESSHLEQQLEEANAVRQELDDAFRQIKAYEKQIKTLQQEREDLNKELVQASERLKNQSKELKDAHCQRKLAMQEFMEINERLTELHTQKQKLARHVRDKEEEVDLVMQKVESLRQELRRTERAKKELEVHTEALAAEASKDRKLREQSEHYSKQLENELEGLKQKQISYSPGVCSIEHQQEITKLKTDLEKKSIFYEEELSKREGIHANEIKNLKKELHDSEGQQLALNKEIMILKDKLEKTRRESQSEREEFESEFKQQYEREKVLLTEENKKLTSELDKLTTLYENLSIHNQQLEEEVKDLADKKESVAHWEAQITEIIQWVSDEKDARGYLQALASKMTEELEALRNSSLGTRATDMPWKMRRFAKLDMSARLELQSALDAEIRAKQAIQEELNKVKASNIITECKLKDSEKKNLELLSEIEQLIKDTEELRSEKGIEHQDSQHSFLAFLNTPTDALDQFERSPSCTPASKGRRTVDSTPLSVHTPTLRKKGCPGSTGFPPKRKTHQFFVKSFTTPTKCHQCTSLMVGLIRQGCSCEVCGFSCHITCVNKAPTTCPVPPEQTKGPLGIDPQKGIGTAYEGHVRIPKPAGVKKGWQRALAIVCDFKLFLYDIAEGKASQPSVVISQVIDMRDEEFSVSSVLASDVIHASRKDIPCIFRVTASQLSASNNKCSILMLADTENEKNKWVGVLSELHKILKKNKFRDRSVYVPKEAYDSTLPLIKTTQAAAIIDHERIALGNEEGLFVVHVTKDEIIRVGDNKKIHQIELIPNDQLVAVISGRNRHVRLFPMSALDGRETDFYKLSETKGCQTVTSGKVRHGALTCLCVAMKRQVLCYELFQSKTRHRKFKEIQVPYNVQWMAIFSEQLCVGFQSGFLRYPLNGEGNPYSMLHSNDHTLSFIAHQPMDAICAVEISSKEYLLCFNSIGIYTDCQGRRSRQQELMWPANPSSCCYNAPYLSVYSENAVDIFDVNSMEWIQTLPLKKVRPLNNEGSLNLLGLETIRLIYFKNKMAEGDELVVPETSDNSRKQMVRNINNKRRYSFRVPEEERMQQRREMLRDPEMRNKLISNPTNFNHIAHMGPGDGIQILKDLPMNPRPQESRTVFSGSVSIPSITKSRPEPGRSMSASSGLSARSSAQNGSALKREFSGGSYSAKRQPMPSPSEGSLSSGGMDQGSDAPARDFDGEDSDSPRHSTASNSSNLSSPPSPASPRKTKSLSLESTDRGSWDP

[23] = biological target: Inhibitor of nuclear factor kappa-B kinase subunit beta (Homo sapiens, UniProt O14920); type: functional
Inhibitor of nuclear factor kappa-B kinase subunit beta, sequence (O14920 whole entry): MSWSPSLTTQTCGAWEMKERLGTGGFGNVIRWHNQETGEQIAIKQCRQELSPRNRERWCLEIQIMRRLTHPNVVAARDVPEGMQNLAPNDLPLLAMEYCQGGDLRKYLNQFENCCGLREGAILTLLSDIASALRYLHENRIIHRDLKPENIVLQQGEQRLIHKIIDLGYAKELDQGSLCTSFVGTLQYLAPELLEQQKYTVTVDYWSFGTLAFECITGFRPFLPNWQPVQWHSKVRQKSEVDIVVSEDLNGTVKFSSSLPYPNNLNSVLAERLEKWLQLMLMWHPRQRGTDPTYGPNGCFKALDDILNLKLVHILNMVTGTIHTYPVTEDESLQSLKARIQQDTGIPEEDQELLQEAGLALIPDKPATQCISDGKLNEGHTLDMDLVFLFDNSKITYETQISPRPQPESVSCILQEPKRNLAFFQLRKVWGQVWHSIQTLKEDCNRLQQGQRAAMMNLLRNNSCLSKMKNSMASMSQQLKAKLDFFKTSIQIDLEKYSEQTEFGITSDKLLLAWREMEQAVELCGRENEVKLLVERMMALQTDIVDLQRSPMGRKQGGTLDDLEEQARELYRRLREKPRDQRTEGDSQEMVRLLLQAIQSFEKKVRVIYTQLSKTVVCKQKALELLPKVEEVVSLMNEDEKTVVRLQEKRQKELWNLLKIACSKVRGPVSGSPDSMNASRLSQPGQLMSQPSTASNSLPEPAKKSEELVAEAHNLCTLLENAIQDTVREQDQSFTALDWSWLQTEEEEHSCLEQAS

C[C@@H]1CC=C[C@H]2[C@H]1C(=O)N(Cc1ccccc1)[C@H]2c1cccc([N+](=O)[O-])c1
AC50 [1]: 58.9 µM (active)
EC50 [2]: 22.7 µM (active)

O=C(NCC(c1cccs1)N1CCOCC1)c1cc([N+](=O)[O-])cc([N+](=O)[O-])c1 (stereo unspecified)
EC50 [3]: 0.726 µM (active)
CC50 [4]: > 40 µM (active)
EC50 [5]: > 60 µM (not active)
CC50 [6]: > 40 µM (active)
IC50 (cells): 1.37 µM (active)
CC50 [7]: 69 µM (active)
CC50 [8]: 44.4 µM (active)
CC50 [9]: > 50 µM (active)

Cc1ccc(S(=O)(=O)Nc2cccc3ccc(C)nc23)cc1
IC50 (HEK293 [10]): > 80 µM (inactive)
IC50 (Jurkat): 1.79 µM (active)
IC50 (HEK293 [11]): > 79 µM (inactive)

O=C(NC(Cc1c[nH]c2ccccc12)C(=O)N/N=C/c1ccc(Br)cc1)c1cccs1 (stereo unspecified)
IC50 (CHO-K1): > 66.2 µM (inactive)
IC50 [12]: > 49.8 µM (inactive)
IC50 [13]: 2.99 µM (active)
IC50 [14]: 7.4 µM (active)
IC50 (Orexin receptor type 2 [15]): 14.3 µM (inactive)
IC50 (Orexin receptor type 2 [16]): 11.1 µM (inactive)

NCCn1cc(-c2cc(-c3cc4ccccc4s3)c3[nH]ncc3c2)c2nc(N)ncc21
Ki [17]: 3.16 µM (active)
Ki [18]: 0.398 µM (active)
Ki [19]: > 6.31 µM (inactive)
Ki [20]: > 7.94 µM (inactive)
Ki [21]: 0.0501 µM (active)
Ki [22]: 3.16 µM (active)
Ki [23]: 0.251 µM (active)
